According to US11000033B2, “Ketone or oxime compound, and herbicide” (NISSAN CHEMICAL CORPORATION, priority 2014, dated 2021):

Legend:
[1] = tested on: Echinochloa crus-galli var. crus-galli; assay: Test Example 4: herbicidal effect by soil treatment (symbol H); format: in vivo; conditions: for H (Echinochloa crus-galli var. crus-galli) herbicidal effect grade / Herbicidal effect grade, H: Echinochloa crus-galli var. crus-galli: application herbicide amount 320 g/ha; for H: Echinochloa crus-galli var. crus-galli, herbicidal effect grade: 320 g/ha
Outline: (§1)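 Seeds were sown in sterilized diluvial soil, covered with about 1.5 cm of soil, and the soil surface was sprayed with a water-diluted emulsion of the compound at a predetermined rate. Plants grew in a greenhouse at 25° C. to 30° C.; effects were scored visually 3 weeks after application.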

Alopecurus myosuroides = assay: Test Example 4: herbicidal effect by soil treatment (symbol J); format: in vivo; conditions: for J (Alopecurus myosuroides) herbicidal effect grade / Herbicidal effect grade, J: Alopecurus myosuroides: application herbicide amount 320 g/ha; for J: Alopecurus myosuroides, herbicidal effect grade: 320 g/ha
Outline: as §1

Lolium multiflorum Lam. = assay: Test Example 4: herbicidal effect by soil treatment (symbol K); format: in vivo; conditions: for K (Lolium multiflorum Lam.) herbicidal effect grade / Herbicidal effect grade, K: Lolium multiflorum Lam.: application herbicide amount 320 g/ha; for K: Lolium multiflorum Lam., herbicidal effect grade: 320 g/ha
Outline: as §1

Galium spurium = assay: Test Example 4: herbicidal effect by soil treatment (symbol Q); format: in vivo; conditions: for Q (Galium spurium) herbicidal effect grade / Herbicidal effect grade, Q: Galium spurium: application herbicide amount 320 g/ha; for Q: Galium spurium, herbicidal effect grade: 320 g/ha
Outline: as §1

Chenopodium album = assay: Test Example 4: herbicidal effect by soil treatment (symbol O); format: in vivo; conditions: for O (Chenopodium album) herbicidal effect grade / Herbicidal effect grade, O: Chenopodium album: application herbicide amount 320 g/ha; for O: Chenopodium album, herbicidal effect grade: 320 g/ha
Outline: as §1

Stellaria media = assay: Test Example 4: herbicidal effect by soil treatment (symbol P); format: in vivo; conditions: for P (Stellaria media) herbicidal effect grade / Herbicidal effect grade, P: Stellaria media: application herbicide amount 320 g/ha; for P: Stellaria media, herbicidal effect grade: 320 g/ha
Outline: as §1

Row | Compound | H (Echinochloa crus-galli var. crus-galli) herbicidal effect grade [1] | J (Alopecurus myosuroides) herbicidal effect grade (Alopecurus myosuroides) | K (Lolium multiflorum Lam.) herbicidal effect grade (Lolium multiflorum Lam.) | Q (Galium spurium) herbicidal effect grade (Galium spurium) | O (Chenopodium album) herbicidal effect grade (Chenopodium album) | P (Stellaria media) herbicidal effect grade (Stellaria media) | further results
1 | CC(CC1CC(O)=C(c2c(C)cc(C)cc2C)C1=O)=NOCC(F)(F)F (stereo not drawn) [1-028] | 5 (Herbicidal ratio of 90% or more (almost completely withered)) | 5 (Herbicidal ratio of 90% or more (almost completely withered)) | 5 (Herbicidal ratio of 90% or more (almost completely withered)) | – | – | – | melting point: 172 to 174 °C
2 | CON=C(CC1CC(O)=C(c2c(C)cc(C)cc2C)C1=O)c1ccccc1 (stereo not drawn) [1-047] | 3 (Herbicidal ratio of 40% or higher and lower than 70%) | 0 (Herbicidal ratio of 5% or lower (almost no effect)) | 3 (Herbicidal ratio of 40% or higher and lower than 70%) | 0 (Herbicidal ratio of 5% or lower (almost no effect)) | 0 (Herbicidal ratio of 5% or lower (almost no effect)) | 0 (Herbicidal ratio of 5% or lower (almost no effect)) | –
3 | CON=C(CC1CC(O)=C(c2c(C)cc(C)cc2C)C1=O)C(C)C (stereo not drawn) [1-048] | 5 (Herbicidal ratio of 90% or more (almost completely withered)) | 5 (Herbicidal ratio of 90% or more (almost completely withered)) | 5 (Herbicidal ratio of 90% or more (almost completely withered)) | 0 (Herbicidal ratio of 5% or lower (almost no effect)) | 0 (Herbicidal ratio of 5% or lower (almost no effect)) | 0 (Herbicidal ratio of 5% or lower (almost no effect)) | –
4 | CON=C(C)CC1CC(OC(=O)C(C)(C)Oc2ccc(Cl)cc2)=C(c2c(C)cc(C)cc2C)C1=O (stereo not drawn) [1-051] | 5 (Herbicidal ratio of 90% or more (almost completely withered)) | 5 (Herbicidal ratio of 90% or more (almost completely withered)) | 5 (Herbicidal ratio of 90% or more (almost completely withered)) | 0 (Herbicidal ratio of 5% or lower (almost no effect)) | 0 (Herbicidal ratio of 5% or lower (almost no effect)) | 0 (Herbicidal ratio of 5% or lower (almost no effect)) | –
5 | CC(CC1CC(O)=C(c2c(C)cc(C)cc2C)C1=O)=NOc1ccccc1 (stereo not drawn) [1-057] | 4 (Herbicidal ratio of 70% or higher and lower than 90%) | 4 (Herbicidal ratio of 70% or higher and lower than 90%) | 5 (Herbicidal ratio of 90% or more (almost completely withered)) | – | – | 0 (Herbicidal ratio of 5% or lower (almost no effect)) | melting point: 149 to 151 °C
6 | CON=C(CC1CC1)CC1CC(O)=C(c2c(C)cc(C)cc2C)C1=O (stereo not drawn) [1-070] | 4 (Herbicidal ratio of 70% or higher and lower than 90%) | 5 (Herbicidal ratio of 90% or more (almost completely withered)) | 5 (Herbicidal ratio of 90% or more (almost completely withered)) | 0 (Herbicidal ratio of 5% or lower (almost no effect)) | 0 (Herbicidal ratio of 5% or lower (almost no effect)) | 0 (Herbicidal ratio of 5% or lower (almost no effect)) | –
7 | CON=C(C)CC1CC(OC(=O)COc2cccc(C#N)c2)=C(c2c(C)cc(C)cc2C)C1=O (stereo not drawn) [1-074] | 5 (Herbicidal ratio of 90% or more (almost completely withered)) | 5 (Herbicidal ratio of 90% or more (almost completely withered)) | 5 (Herbicidal ratio of 90% or more (almost completely withered)) | 0 (Herbicidal ratio of 5% or lower (almost no effect)) | 0 (Herbicidal ratio of 5% or lower (almost no effect)) | 0 (Herbicidal ratio of 5% or lower (almost no effect)) | –
8 | COCC(=O)OC1=C(c2c(C)cc(C)cc2C)C(=O)C(CC(C)=NOC)C1 (stereo not drawn) [1-093] | – | – | – | – | – | – | H: Echinochloa crus-galli var. crus-galli, herbicidal effect grade [1]: 5 (Herbicidal ratio of 90% or more (almost completely withered)); J: Alopecurus myosuroides, herbicidal effect grade (Alopecurus myosuroides): 5 (Herbicidal ratio of 90% or more (almost completely withered)); Q: Galium spurium, herbicidal effect grade (Galium spurium): 0 (Herbicidal ratio of 5% or lower (almost no effect)); K: Lolium multiflorum Lam., herbicidal effect grade (Lolium multiflorum Lam.): 5 (Herbicidal ratio of 90% or more (almost completely withered)); O: Chenopodium album, herbicidal effect grade (Chenopodium album): 0 (Herbicidal ratio of 5% or lower (almost no effect)); P: Stellaria media, herbicidal effect grade (Stellaria media): 0 (Herbicidal ratio of 5% or lower (almost no effect))
9 | CC#CC(=O)OC1=C(c2c(C)cc(C)cc2C)C(=O)C(CC(C)=NOC)C1 (stereo not drawn) [1-095] | – | – | – | – | – | – | H: Echinochloa crus-galli var. crus-galli, herbicidal effect grade [1]: 5 (Herbicidal ratio of 90% or more (almost completely withered)); J: Alopecurus myosuroides, herbicidal effect grade (Alopecurus myosuroides): 5 (Herbicidal ratio of 90% or more (almost completely withered)); Q: Galium spurium, herbicidal effect grade (Galium spurium): 0 (Herbicidal ratio of 5% or lower (almost no effect)); K: Lolium multiflorum Lam., herbicidal effect grade (Lolium multiflorum Lam.): 5 (Herbicidal ratio of 90% or more (almost completely withered)); O: Chenopodium album, herbicidal effect grade (Chenopodium album): 0 (Herbicidal ratio of 5% or lower (almost no effect)); P: Stellaria media, herbicidal effect grade (Stellaria media): 0 (Herbicidal ratio of 5% or lower (almost no effect))
10 | CC(=O)CC1CC(O)=C(c2c(C)cc(-c3ncccn3)cc2C)C1=O (stereo not drawn) [7-017] | – | – | – | – | – | – | Herbicidal effect grade, H: Echinochloa crus-galli var. crus-galli [1]: 0 (Herbicidal ratio of 5% or lower (almost no effect)); Herbicidal effect grade, J: Alopecurus myosuroides (Alopecurus myosuroides): 0 (Herbicidal ratio of 5% or lower (almost no effect)); Herbicidal effect grade, Q: Galium spurium (Galium spurium): 0 (Herbicidal ratio of 5% or lower (almost no effect)); Herbicidal effect grade, K: Lolium multiflorum Lam. (Lolium multiflorum Lam.): 0 (Herbicidal ratio of 5% or lower (almost no effect)); Herbicidal effect grade, O: Chenopodium album (Chenopodium album): 0 (Herbicidal ratio of 5% or lower (almost no effect)); Herbicidal effect grade, P: Stellaria media (Stellaria media): 0 (Herbicidal ratio of 5% or lower (almost no effect))
11 | CC#Cc1cc(C)c(C2=C(OC(=O)COc3ccccc3)CC(CC(=NOC)C(C)C)C2=O)c(C)c1 (stereo not drawn) [9-003] | – | – | – | – | – | – | Herbicidal effect grade, H: Echinochloa crus-galli var. crus-galli [1]: 5 (Herbicidal ratio of 90% or more (almost completely withered)); Herbicidal effect grade, J: Alopecurus myosuroides (Alopecurus myosuroides): 5 (Herbicidal ratio of 90% or more (almost completely withered)); Herbicidal effect grade, Q: Galium spurium (Galium spurium): 0 (Herbicidal ratio of 5% or lower (almost no effect)); Herbicidal effect grade, K: Lolium multiflorum Lam. (Lolium multiflorum Lam.): 5 (Herbicidal ratio of 90% or more (almost completely withered)); Herbicidal effect grade, O: Chenopodium album (Chenopodium album): 0 (Herbicidal ratio of 5% or lower (almost no effect)); Herbicidal effect grade, P: Stellaria media (Stellaria media): 0 (Herbicidal ratio of 5% or lower (almost no effect))
12 | CON=C(CC1CC(O)=C(c2c(C)cc(-n3cc(Cl)cn3)cc2C)C1=O)C(C)C (stereo not drawn) [9-004] | – | – | – | – | – | – | Herbicidal effect grade, H: Echinochloa crus-galli var. crus-galli [1]: 5 (Herbicidal ratio of 90% or more (almost completely withered)); Herbicidal effect grade, J: Alopecurus myosuroides (Alopecurus myosuroides): 5 (Herbicidal ratio of 90% or more (almost completely withered)); Herbicidal effect grade, Q: Galium spurium (Galium spurium): 0 (Herbicidal ratio of 5% or lower (almost no effect)); Herbicidal effect grade, K: Lolium multiflorum Lam. (Lolium multiflorum Lam.): 4 (Herbicidal ratio of 70% or higher and lower than 90%); Herbicidal effect grade, O: Chenopodium album (Chenopodium album): 0 (Herbicidal ratio of 5% or lower (almost no effect)); Herbicidal effect grade, P: Stellaria media (Stellaria media): 0 (Herbicidal ratio of 5% or lower (almost no effect))
